SMILES strings stand for the structures.

One assay relates to XBP1 splicing. The experiment in a line: Cellular XBP1 splicing assay. Type of assay: cell-based. As to conditions: Homo sapiens, ARPE-19 cells stably expressing XBP1-nano-luciferase, thapsigargin 150 nM, 4 hour incubation. The method, then: Cellular XBP1 Splicing Assay
ARPE-19 cells stably expressing XBP1 (a.a. 1-376) with nano-luciferase gene sequence linked so it is in frame when XBP1 is spliced, were cultured in F12 media, 10% FBS, 0.044% sodium bicarbonate, 150 μg/ml hygromycin B and seeded for assays at 5,000 cells in 384 well plates in culture media without hygromycin B and incubated at 37° C./5% CO2. After overnight incubation test compounds were added to the cell plate in a 10-point ½ log dilution series in duplicate (final DMSO concentration 0.117%). After further incubation of 30 minutes thapsigargin was added (final concentration 150 nM) and then another 4 hour incubation. A NanoLuc luciferase assay (Promega) was used according to the manufacturer's instructions to detect the luciferase and luminescence measured on a luminometer (EnVision, PerkinElmer). IC50 values calculated by fitting a sigmoidal curve to percent inhibition of control of compound concentration.
(§1) In vitro assay data are for the inhibition of RNase activity of IRE1α. Cellular assay (IC50 data) are for the XBP1 splicing assay.

The target of the next assay is T1, IRE1α (Homo sapiens, UniProt O75460).
T1 construct: purchased Signal Chem E31-11G
T1 sequence (O75460 468-977 limits assumed): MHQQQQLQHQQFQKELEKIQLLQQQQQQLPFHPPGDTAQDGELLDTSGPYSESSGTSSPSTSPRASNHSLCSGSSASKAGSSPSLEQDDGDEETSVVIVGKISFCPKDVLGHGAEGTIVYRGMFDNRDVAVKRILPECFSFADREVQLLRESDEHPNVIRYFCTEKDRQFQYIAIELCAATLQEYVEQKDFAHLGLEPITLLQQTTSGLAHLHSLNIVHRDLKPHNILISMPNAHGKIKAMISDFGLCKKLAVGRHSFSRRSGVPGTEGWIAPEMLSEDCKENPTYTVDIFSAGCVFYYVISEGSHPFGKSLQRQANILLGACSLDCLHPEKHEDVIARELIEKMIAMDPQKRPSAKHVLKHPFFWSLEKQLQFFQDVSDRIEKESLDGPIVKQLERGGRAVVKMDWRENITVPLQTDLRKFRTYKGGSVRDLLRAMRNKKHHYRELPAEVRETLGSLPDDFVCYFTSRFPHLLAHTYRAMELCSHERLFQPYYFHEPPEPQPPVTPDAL
In words: Biochemical assay: inhibition of RNase activity of IRE1α. To be noted: IRE1α kinase (E31-11G, Signal Chem) 0.325 nM, substrate 100 nM, 30 min pre-incubation, read-out: In vitro assay IC50. The method, then:
Biochemical Assay: Inhibition of RNase activity of IRE1α
The RNase reactions were performed in 384 well black ProxiPlate-384 Plus plates (PERKIN Elmer) using 50 mM Tris assay buffer with 0.5 mM MgCl2, 10 mM KCl, 0.03% Tween, 2 mM DTT and 1% DMSO. Test compounds were prepared on the day of assay and dispensed using D300 digital dispenser as a 10-point ½ log dilution series in duplicate, normalized to a final DMSO concentration of […]. Test compounds were pre-incubated for 30 min at room temperature with IRE1α kinase (E31-11G from Signal Chem) in 2.5 μL of assay buffer. Then 2.5 μl of assay buffer containing substrate (5′ Alexa Fluor 647-rCrArU rGrUrC rCrGrC rArGrC rGrCrArUrG-Iowa Black RQ quencher 3′) added, giving a final concentration of enzyme of 0.325 nM and of substrate of 100 nM. After 20 minutes incubation at room temperature the reactions were stopped by added 5 μL of 5M urea, incubated at room temperature for 10 minutes and fluorescence measured on a plate reader (EnVision, PerkinElmer) IC50 values calculated by fitting a sigmoidal curve to percent inhibition of control versus compound concentration.
as §1

The molecule `CC(C)c1nc(-c2ccc(NS(=O)(=O)c3ccccn3)c(F)c2)c2c(N)ncc(C3=CCC(NC4COC4)CC3)n12` (stereo not drawn) [Example 14, N-(4-(8-Amino-3-isopropyl-5-(4-(oxetan-3-ylamino)cyclohex-1-en-1-yl)imidazo[1,5-a]pyrazin-1-yl)-2-fluorophenyl)pyridine-2-sulfonamide] showed an IC50 in the assay with XBP1 splicing of 5400 nM.

Consider `CC(C)c1nc(-c2ccc(NS(=O)(=O)c3ccccc3Cl)c(F)c2)c2c(N)ncc(C3=CCC(NCCS(C)(=O)=O)CC3)n12` (stereo not drawn) [Example 16, N-(4-(8-Amino-3-isopropyl-5-(4-((2-(methylsulfonyl)ethyl)amino)cyclohex-1-en-1-yl)imidazo[1,5-a]pyrazin-1-yl)-2-fluorophenyl)-2-chlorobenzenesulfonamide], for which the half-maximal inhibitory concentration (IC50) is 11 nM at IRE1α and 110 nM in the assay with XBP1 splicing.

Take `COc1nc(NS(=O)(=O)c2ccccc2Cl)ccc1-c1nc(C(C)C)n2c(C3=CCC(NC4COC4)CC3)cnc(N)c12` (stereo not drawn) [Example 20, N-(5-(8-amino-3-isopropyl-5-(4-(oxetan-3-ylamino)cyclohex-1-en-1-yl)imidazo[1,5-a]pyrazin-1-yl)-6-methoxypyridin-2-yl)-2-chlorobenzenesulfonamide]: the IC50 is more than 1000 nM on IRE1α and more than 10000 nM in the assay with XBP1 splicing.

Regarding `CC(C)c1nc(-c2ccc(NS(=O)(=O)Cc3ccccc3Cl)c(F)c2)c2c(N)ncc(C3=CCC(N(C)C)CC3)n12` (stereo not drawn) [Example 22], the IC50 on IRE1α worked out at 1.5 nM; in the assay with XBP1 splicing, 1.7 nM.

Turning to `CC(C)c1nc(-c2cc(F)c(NS(=O)(=O)c3ccccc3F)cc2F)c2c(N)ncc(C3=CCC(NC4COC4)CC3)n12` (stereo not drawn) [Example 7, N-(4-(8-Amino-3-isopropyl-5-(4-(oxetan-3-ylamino)cyclohex-1-en-1-yl)imidazo[1,5-a]pyrazin-1-yl)-2,5-difluorophenyl)-2-fluorobenzenesulfonamide], the results for the half-maximal inhibitory concentration (IC50) at IRE1α and in the assay on XBP1 splicing were 150 nM and 540 nM, respectively.

Regarding `Cc1cncc(S(=O)(=O)Nc2ccc(-c3nc(C(C)C)n4c(C5=CCC(NC6COC6)CC5)cnc(N)c34)cc2F)c1` (stereo not drawn) [Example 13, N-(4-(8-Amino-3-isopropyl-5-(4-(oxetan-3-ylamino)cyclohex-1-en-1-yl)imidazo[1,5-a]pyrazin-1-yl)-2-fluorophenyl)-5-methylpyridine-3-sulfonamide], the values for the IC50 at IRE1α and with XBP1 splicing were 360 nM and 6400 nM, respectively.

As for `CC(C)c1nc(-c2cnc(NS(=O)(=O)c3ccccc3Cl)c(F)c2)c2c(N)ncc(C3=CCC(NC4COC4)CC3)n12` (stereo not drawn) [Example 10, N-(5-(8-Amino-3-isopropyl-5-(4-(oxetan-3-ylamino)cyclohex-1-en-1-yl)imidazo[1,5-a]pyrazin-1-yl)-3-fluoropyridin-2-yl)-2-chlorobenzenesulfonamide], the IC50 stood at 61 nM at IRE1α and 7700 nM in the assay on XBP1 splicing.

Consider `CC(C)c1nc(-c2ccc(NS(=O)(=O)c3ccccc3F)c(F)c2Cl)c2c(N)ncc(C3=CCC(NC4COC4)CC3)n12` (stereo not drawn) [Example 9, N-(4-(8-Amino-3-isopropyl-5-(4-(oxetan-3-ylamino)cyclohex-1-en-1-yl)imidazo[1,5-a]pyrazin-1-yl)-3-chloro-2-fluorophenyl)-2-fluorobenzenesulfonamide], for which the figures for the IC50 at IRE1α and in the assay on XBP1 splicing were 69 nM and 760 nM, respectively.

On to `Cc1nc(NS(=O)(=O)c2ccccc2Cl)ccc1-c1nc(C(C)C)n2c(C3=CCC(NC4COC4)CC3)cnc(N)c12` (stereo not drawn) [Example 21, N-(5-(8-amino-3-isopropyl-5-(4-(oxetan-3-ylamino)cyclohex-1-en-1-yl)imidazo[1,5-a]pyrazin-1-yl)-6-methylpyridin-2-yl)-2-chlorobenzenesulfonamide], for which the half-maximal inhibitory concentration (IC50) is more than 1000 nM on IRE1α and 6100 nM with XBP1 splicing.

With `Cc1nc(S(=O)(=O)Nc2ccc(-c3nc(C(C)C)n4c(C5=CCC(NC6COC6)CC5)cnc(N)c34)cc2F)cs1` (stereo not drawn) [Example 15, N-(4-(8-Amino-3-isopropyl-5-(4-(oxetan-3-ylamino)cyclohex-1-en-1-yl)imidazo[1,5-a]pyrazin-1-yl)-2-fluorophenyl)-2-methylthiazole-4-sulfonamide], the values for the half-inhibitory concentration (IC50) at IRE1α and with XBP1 splicing were 480 nM and 6500 nM, respectively.

Take `COc1ccc(S(=O)(=O)Nc2ccc(-c3nc(C(C)C)n4c(C5=CCC(NC6COC6)CC5)cnc(N)c34)cc2F)cn1` (stereo not drawn) [Example 11, N-(4-(8-Amino-3-isopropyl-5-(4-(oxetan-3-ylamino)cyclohex-1-en-1-yl)imidazo[1,5-a]pyrazin-1-yl)-2-fluorophenyl)-6-methoxypyridine-3-sulfonamide]: the IC50 was found to be 420 nM at IRE1α and 3100 nM with XBP1 splicing.

In the case of `CC(C)c1nc(-c2ccc(NS(=O)(=O)c3ccccc3Cl)c(F)c2)c2c(N)ncc(C3=CCC(N4CCOCC4)CC3)n12` (stereo not drawn) [Example 18, N-(4-(8-Amino-3-isopropyl-5-(4-morpholinocyclohex-1-en-1-yl)imidazo[1,5-a]pyrazin-1-yl)-2-fluorophenyl)-2-chlorobenzenesulfonamide], the half-maximal inhibitory concentration (IC50) on IRE1α was determined as 82 nM; with XBP1 splicing, 85 nM.

As for `CC(C)c1nc(-c2ccc(NS(=O)(=O)c3ccccc3Cl)c(F)c2)c2c(N)ncc([C@H]3CC[C@H](N)CC3)n12` [Example 2, N-(4-(8-Amino-5-((1r,4r)-4-aminocyclohexyl)-3-isopropylimidazo[1,5-a]pyrazin-1-yl)-2-fluorophenyl)-2-chlorobenzenesulfonamide], the half-inhibitory concentration (IC50) on IRE1α and in the assay with XBP1 splicing was 15 nM each time.

On to `CC(C)c1nc(-c2ccc(NS(=O)(=O)c3ccccc3F)c(F)c2)c2c(N)ncc(C3=CCC(NC4COC4)CC3)n12` (stereo not drawn) [Example 6, N-(4-(8-Amino-3-isopropyl-5-(4-(oxetan-3-ylamino)cyclohex-1-en-1-yl)imidazo[1,5-a]pyrazin-1-yl)-2-fluorophenyl)-2-fluorobenzenesulfonamide], for which the IC50 on IRE1α was determined as 150 nM; in the assay on XBP1 splicing, 98 nM.

Consider `CC(C)c1nc(-c2ccc(NS(=O)(=O)c3ccc(C(F)(F)F)nc3)c(F)c2)c2c(N)ncc(C3=CCC(NC4COC4)CC3)n12` (stereo not drawn) [Example 12, N-(4-(8-Amino-3-isopropyl-5-(4-(oxetan-3-ylamino)cyclohex-1-en-1-yl)imidazo[1,5-a]pyrazin-1-yl)-2-fluorophenyl)-6-(trifluoromethyl)pyridine-3-sulfonamide], for which the concentration for half-maximal inhibition (IC50) at IRE1α turned out to be 140 nM; in the assay with XBP1 splicing, 6600 nM.

Turning to `CC(C)c1nc(-c2cc(F)c(NS(=O)(=O)c3ccccc3Cl)cc2F)c2c(N)ncc(C3=CCC(NC4COC4)CC3)n12` (stereo not drawn) [Example 8, N-(4-(8-Amino-3-isopropyl-5-(4-(oxetan-3-ylamino)cyclohex-1-en-1-yl)imidazo[1,5-a]pyrazin-1-yl)-2,5-difluorophenyl)-2-chlorobenzenesulfonamide], the IC50 at IRE1α was found to be 110 nM; in the assay with XBP1 splicing, 170 nM.

Regarding `COCCNC1CC=C(c2cnc(N)c3c(-c4ccc(NS(=O)(=O)c5ccccc5Cl)c(F)c4)nc(C(C)C)n23)CC1` (stereo not drawn) [Example 19, N-(4-(8-amino-3-isopropyl-5-(4-((2-methoxyethyl)amino)cyclohex-1-en-1-yl)imidazo[1,5-a]pyrazin-1-yl)-2-fluorophenyl)-2-chlorobenzenesulfonamide], the half-inhibitory concentration (IC50) on IRE1α was 44 nM; in the assay on XBP1 splicing it was 41 nM.

For the molecule `CC(C)c1nc(-c2ccc(NS(=O)(=O)c3ccccc3Cl)c(F)c2)c2c(N)ncc([C@H]3CC[C@@H](N)CC3)n12` [Example 1, N-(4-(8-Amino-5-((1s,4s)-4-aminocyclohexyl)-3-isopropylimidazo[1,5-a]pyrazin-1-yl)-2-fluorophenyl)-2-chlorobenzenesulfonamide], the results for the IC50 on IRE1α and in the assay on XBP1 splicing were 290 nM and 510 nM, respectively.

As to `CC(C)c1nc(-c2ccc(NS(=O)(=O)c3ccccc3Cl)c(F)c2)c2c(N)ncc([C@H]3CC[C@@H](NC4COC4)CC3)n12` [Example 3, N-(4-(8-Amino-3-isopropyl-5-((1s,4s)-4-(oxetan-3-ylamino)cyclohexyl)imidazo[1,5-a]pyrazin-1-yl)-2-fluorophenyl)-2-chlorobenzenesulfonamide], the values for the IC50 at IRE1α and with XBP1 splicing were 280 nM and 300 nM, respectively.

Regarding `Cc1nc(CS(=O)(=O)Nc2ccc(-c3nc(C(C)C)n4c(C5=CCC(N)CC5)cnc(N)c34)cc2F)cs1` (stereo not drawn) [Example 17, N-(4-(8-Amino-5-(4-aminocyclohex-1-en-1-yl)-3-isopropylimidazo[1,5-a]pyrazin-1-yl)-2-fluorophenyl)-1-(2-methylthiazol-4-yl)methanesulfonamide], the half-maximal inhibitory concentration (IC50) at IRE1α came to 40 nM; in the assay on XBP1 splicing it was 7450 nM.

Broadly, the IC50 is the concentration needed to halve the response being measured.

(Values after US20220194945A1, “Imidazolopyridine Compounds For IRE1 Inhibition” (Optikira, LLC, priority 2019, published 2022).)
